Assay results: ChEMBL document CHEMBL1201861, “Genomics of Drug Sensitity in Cancer screening data, Wellcome Trust Sanger Institute”

Key:
Experiment in all cases: cells
[1] = system: 8-MG-BA; type: functional, cell-based, Homo sapiens; details: Homo sapiens, 8-MG-BA;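 further: growth inhibition of 8-MG-BA cells, read out with a cell viability assay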
Description: SANGER: Inhibition of human 8-MG-BA cell growth in a cell viability assay.

[2] = system: KURAMOCHI; type: functional, cell-based; details: Homo sapiens;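 further: growth inhibition of KURAMOCHI cells, read out with a cell viability assay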
Description: SANGER: Inhibition of human KURAMOCHI cell growth in a cell viability assay.

[3] = system: SW1417; type: functional, cell-based, Homo sapiens; details: Homo sapiens, SW1417;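 further: growth inhibition of human SW1417 cells, read out with a cell viability assay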
Description: SANGER: Inhibition of human SW1417 cell growth in a cell viability assay.

[4] = system: OVCAR-4; type: functional, cell-based, Homo sapiens; details: Homo sapiens, OVCAR-4;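 further: growth inhibition of human OVCAR-4 cells, measured with a cell viability assay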
Description: SANGER: Inhibition of human OVCAR-4 cell growth in a cell viability assay.

[5] = system: NCI-H446; type: functional, cell-based; details: Homo sapiens;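 further: growth inhibition of NCI-H446 cells determined by a cell viability assay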
Description: SANGER: Inhibition of human NCI-H446 cell growth in a cell viability assay.

[6] = system: VM-CUB-1; type: functional, cell-based; details: Homo sapiens;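 further: cell viability assay measuring growth inhibition of the human VM-CUB-1 cell line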
Description: SANGER: Inhibition of human VM-CUB-1 cell growth in a cell viability assay.

[7] = system: DOHH-2; type: functional, cell-based; details: Homo sapiens;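 further: growth inhibition of human DOHH-2 cells, read out with a cell viability assay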
Description: SANGER: Inhibition of human DOHH-2 cell growth in a cell viability assay.

[8] = system: 8505C; type: functional, cell-based, Homo sapiens; details: Homo sapiens, 8505C
Description: SANGER: Inhibition of human 8505C cell growth in a cell viability assay.

[9] = system: ES6; type: functional, cell-based, Homo sapiens; details: Homo sapiens, ES6;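 further: growth inhibition of human ES6 cells, read out with a cell viability assay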
Description: SANGER: Inhibition of human ES6 cell growth in a cell viability assay.

[10] = system: PFSK-1; type: functional, cell-based, Homo sapiens; details: Homo sapiens, PFSK-1;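 further: cell viability assay measuring how strongly compounds suppress growth of human PFSK-1 cells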
Description: SANGER: Inhibition of human PFSK-1 cell growth in a cell viability assay.

[11] = system: SNU-5; type: functional, cell-based; details: Homo sapiens;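 further: cell viability readout used to measure growth inhibition in human NCI-SNU-5 cells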
Description: SANGER: Inhibition of human NCI-SNU-5 cell growth in a cell viability assay.

[12] = system: ACHN; type: functional, cell-based, Homo sapiens; details: Homo sapiens, ACHN;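 further: cell viability read-out used to gauge how strongly growth of human ACHN cells is suppressed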
Description: SANGER: Inhibition of human ACHN cell growth in a cell viability assay.

[13] = system: KYSE-410; type: functional, cell-based, Homo sapiens; details: Homo sapiens, KYSE-410;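 further: growth inhibition of KYSE-410 cells, measured through a cell viability readout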
Description: SANGER: Inhibition of human KYSE-410 cell growth in a cell viability assay.

[14] = system: HT; type: functional, cell-based; details: Homo sapiens
Description: SANGER: Inhibition of human HT cell growth in a cell viability assay.

[15] = system: A101D; type: functional, cell-based, Homo sapiens; details: Homo sapiens, A101D;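 further: growth inhibition of the cell line, measured with a viability assay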
Description: SANGER: Inhibition of human A101D cell growth in a cell viability assay.

[16] = system: MFM-223; type: functional, cell-based, Homo sapiens; details: Homo sapiens, MFM-223
Description: SANGER: Inhibition of human MFM-223 cell growth in a cell viability assay.

[17] = system: SK-LU-1; type: functional, cell-based, Homo sapiens; details: Homo sapiens, SK-LU-1;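 further: cell viability assay measuring growth inhibition of human SK-LU-1 cells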
Description: SANGER: Inhibition of human SK-LU-1 cell growth in a cell viability assay.

[18] = system: JVM-2; type: functional, cell-based; details: Homo sapiens;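 further: growth inhibition of JVM-2 cells determined by a cell viability assay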
Description: SANGER: Inhibition of human JVM-2 cell growth in a cell viability assay.

[19] = system: SK-MEL-30; type: functional, cell-based; details: Homo sapiens;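 further: growth inhibition of SK-MEL-30 cells, determined with a cell viability assay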
Description: SANGER: Inhibition of human SK-MEL-30 cell growth in a cell viability assay.

[20] = system: KYSE-150 cell line; type: functional, cell-based, Homo sapiens; details: Homo sapiens, KYSE-150;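 further: growth inhibition of human KYSE-150 cells, read out with a cell viability assay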
Description: SANGER: Inhibition of human KYSE-150 cell growth in a cell viability assay.

[21] = system: SW626; type: functional, cell-based, Homo sapiens; details: Homo sapiens, SW626;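 further: growth inhibition of SW626 cells, measured with a cell viability assay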
Description: SANGER: Inhibition of human SW626 cell growth in a cell viability assay.

[22] = system: NCI-H1650; type: functional, cell-based, Homo sapiens; details: Homo sapiens, NCI-H1650;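 further: growth inhibition of human NCI-H1650 cells measured by a cell viability assay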
Description: SANGER: Inhibition of human NCI-H1650 cell growth in a cell viability assay.

[23] = system: U2OS; type: functional, cell-based, Homo sapiens, U-2-OS; details: Homo sapiens, U2OS;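 further: growth inhibition of human U-2-OS cells, determined with a cell viability assay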
Description: SANGER: Inhibition of human U-2-OS cell growth in a cell viability assay.

[24] = system: LS-411N; type: functional, cell-based, Homo sapiens; details: Homo sapiens, LS-411N
[25] = system: SBC-1; type: functional, cell-based; details: Homo sapiens;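 further: cell viability assay measuring growth inhibition of the SBC-1 cell line, IC50 being the concentration that halves growth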
Description: SANGER: Inhibition of human SBC-1 cell growth in a cell viability assay.

[26] = system: IA-LM; type: functional, cell-based, Homo sapiens; details: Homo sapiens, IA-LM;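 further: cell viability assay measuring growth inhibition of human IA-LM cells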
Description: SANGER: Inhibition of human IA-LM cell growth in a cell viability assay.

[27] = system: JEG-3; type: functional, cell-based, Homo sapiens; details: Homo sapiens, JEG-3;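 further: growth inhibition of human JEG-3 cells, read out with a cell viability assay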
Description: SANGER: Inhibition of human JEG-3 cell growth in a cell viability assay.

[28] = system: NCI-H1623; type: functional, cell-based, Homo sapiens; details: Homo sapiens, NCI-H1623;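 further: cell viability assay used as the read-out for growth inhibition of NCI-H1623 cells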
Description: SANGER: Inhibition of human NCI-H1623 cell growth in a cell viability assay.

[29] = system: HEL; type: functional, cell-based, Homo sapiens; details: Homo sapiens, HEL;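 further: growth inhibition of HEL cells, read out with a cell viability assay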
Description: SANGER: Inhibition of human HEL cell growth in a cell viability assay.

[30] = system: LCLC-97TM1; type: functional, cell-based, Homo sapiens; details: Homo sapiens, LCLC-97TM1;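 further: cell viability assay measuring growth inhibition of human LCLC-97TM1 cells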
Description: SANGER: Inhibition of human LCLC-97TM1 cell growth in a cell viability assay.

[31] = system: BT-20; type: functional, cell-based, Homo sapiens; details: Homo sapiens, BT-20;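 further: cell viability assay measuring suppression of growth in human BT-20 cells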
Description: SANGER: Inhibition of human BT-20 cell growth in a cell viability assay.

[32] = system: NCI-H441; type: functional, cell-based; details: Homo sapiens;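 further: growth inhibition of NCI-H441 cells, read out with a cell viability assay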
Description: SANGER: Inhibition of human NCI-H441 cell growth in a cell viability assay.

[33] = system: DB; type: functional, cell-based; details: Homo sapiens
Description: SANGER: Inhibition of human DB cell growth in a cell viability assay.

[34] = system: SAOS-2; type: functional, cell-based, Homo sapiens; details: Homo sapiens, SAOS-2;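 further: growth inhibition of human Saos-2 cells determined by a cell viability assay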
Description: SANGER: Inhibition of human Saos-2 cell growth in a cell viability assay.

[35] = system: ES4; type: functional, cell-based, Homo sapiens; details: Homo sapiens, ES4;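 further: growth inhibition of human ES4 cells, read out by a cell viability assay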
Description: SANGER: Inhibition of human ES4 cell growth in a cell viability assay.

[36] = system: MN-60; type: functional, cell-based; details: Homo sapiens;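 further: growth inhibition of the MN-60 cell line, determined with a cell viability assay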
Description: SANGER: Inhibition of human MN-60 cell growth in a cell viability assay.

[37] = system: SW837; type: functional, cell-based, Homo sapiens; details: Homo sapiens, SW837;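 further: growth inhibition of SW837 cells, determined with a cell viability assay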
Description: SANGER: Inhibition of human SW837 cell growth in a cell viability assay.

[38] = system: NCI-H720; type: functional, cell-based; details: Homo sapiens;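 further: growth inhibition of human NCI-H720 cells determined by a cell viability assay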
Description: SANGER: Inhibition of human NCI-H720 cell growth in a cell viability assay.

[39] = system: LB2518-MEL; type: functional, cell-based, Homo sapiens; details: Homo sapiens, LB2518-MEL;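 further: growth inhibition of human LB2518-MEL cells, measured with a cell viability assay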
Description: SANGER: Inhibition of human LB2518-MEL cell growth in a cell viability assay.

[40] = system: NCI-H1648; type: functional, cell-based, Homo sapiens; details: Homo sapiens, NCI-H1648;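 further: cell viability assay measuring inhibition of NCI-H1648 cell growth, from the Sanger screening data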
Description: SANGER: Inhibition of human NCI-H1648 cell growth in a cell viability assay.

[41] = system: HSC-2; type: functional, cell-based, Homo sapiens; details: Homo sapiens, HSC-2;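 further: growth inhibition of human HSC-2 cells, read out by a cell viability assay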
Description: SANGER: Inhibition of human HSC-2 cell growth in a cell viability assay.

[42] = system: GI-1; type: functional, cell-based, Homo sapiens; details: Homo sapiens, GI-1;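 further: growth inhibition of human GI-1 cells, measured with a cell viability readout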
Description: SANGER: Inhibition of human GI-1 cell growth in a cell viability assay.

[43] = system: SNU-387; type: functional, cell-based, Homo sapiens; details: Homo sapiens, SNU-387
Description: SANGER: Inhibition of human SNU-387 cell growth in a cell viability assay.

[44] = system: CTV-1; type: functional, cell-based; details: Homo sapiens;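 further: growth inhibition of the cell line, read out with a cell viability assay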
Description: SANGER: Inhibition of human CTV-1 cell growth in a cell viability assay.

[45] = system: HT-144; type: functional, cell-based, Homo sapiens; details: Homo sapiens, HT-144
Description: SANGER: Inhibition of human HT-144 cell growth in a cell viability assay.

[46] = system: MFE-280; type: functional, cell-based, Homo sapiens; details: Homo sapiens, MFE-280;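 further: growth inhibition of MFE-280 cells, determined with a cell viability readout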
Description: SANGER: Inhibition of human MFE-280 cell growth in a cell viability assay.

[47] = system: EFM-19; type: functional, cell-based, Homo sapiens; details: Homo sapiens, EFM-19;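 further: growth inhibition of human EFM-19 cells, measured in a cell viability assay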
Description: SANGER: Inhibition of human EFM-19 cell growth in a cell viability assay.

[48] = system: KARPAS-45; type: functional, cell-based; details: Homo sapiens;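 further: inhibition of cell line growth, read out through a viability assay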
Description: SANGER: Inhibition of human KARPAS-45 cell growth in a cell viability assay.

[49] = system: HOP-92; type: functional, cell-based, Homo sapiens; details: Homo sapiens, HOP-92;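 further: cell viability readout, with IC50 reflecting inhibition of HOP-92 cell growth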
Description: SANGER: Inhibition of human HOP-92 cell growth in a cell viability assay.

[50] = system: HCC1569; type: functional, cell-based, Homo sapiens; details: Homo sapiens, HCC1569;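 further: growth inhibition of human HCC1569 cells, read out with a cell viability assay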
Description: SANGER: Inhibition of human HCC1569 cell growth in a cell viability assay.

[51] = system: NMC-G1; type: functional, cell-based, Homo sapiens; details: Homo sapiens, NMC-G1;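 further: growth inhibition of the NMC-G1 cell line, measured with a cell viability read-out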
Description: SANGER: Inhibition of human NMC-G1 cell growth in a cell viability assay.

[52] = system: MZ1-PC; type: functional, cell-based, Homo sapiens; details: Homo sapiens, MZ1-PC;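 further: cell viability assay measuring growth inhibition of human MZ1-PC cells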
Description: SANGER: Inhibition of human MZ1-PC cell growth in a cell viability assay.

[53] = system: NCI-H2342; type: functional, cell-based; details: Homo sapiens;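 further: growth inhibition of the cancer cell line, determined with a cell viability assay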
Description: SANGER: Inhibition of human NCI-H2342 cell growth in a cell viability assay.

Measured: IC50

Cc1ccc(Nc2nccc(N(C)c3ccc4c(C)n(C)nc4c3)n2)cc1S(N)(=O)=O [PAZOPANIB]
> 8000 nM: [1] | [2] | [3] | [4] | [5] | [6] | [7] | [8] | [10] | [11] | [12] | [13] | [14] | [15] | [16] | [18] | [19] | [20] | [21] | [22] | [23] | [24] | [25] | [27] | [28] | [29] | [30] | [31] | [32] | [33] | [34] | [35] | [36] | [37] | [38] | [39] | [40] | [41] | [43] | [45] | [46] | [47] | [48] | [49] | [50] | [52]
2230 nM: [42]
7930 nM: [26]
6210 nM: [44]
3190 nM: [17]
6550 nM: [51]
6030 nM: [9]
3130 nM: [53]

CN(c1ncccc1CNc1nc(Nc2ccc3c(c2)CC(=O)N3)ncc1C(F)(F)F)S(C)(=O)=O [PF-00562271]
2530 nM: [43]
1350 nM: [20]
2310 nM: [49]
> 2560 nM: [1] | [2] | [3] | [4] | [5] | [6] | [7] | [8] | [9] | [10] | [11] | [12] | [13] | [14] | [15] | [16] | [17] | [18] | [19] | [21] | [22] | [23] | [24] | [25] | [26] | [27] | [28] | [29] | [30] | [31] | [32] | [33] | [34] | [35] | [36] | [37] | [38] | [39] | [40] | [42] | [44] | [45] | [46] | [47] | [48] | [50] | [51] | [53]
1540 nM: [41]
1620 nM: [52]
